According to ChEMBL document CHEMBL3259571, “Diacylglycerol lactones targeting the structural features that distinguish the atypical C1 domains of protein kinase C ζ and ι from typical C1 domains” (J Med Chem, 2014):

What was measured:
[1] = Displacement of [20-3H]PDBu from GST-tagged mouse PKC-delta C1B domain N7R/L20R mutant expressed in Escherichia coli after 2 to 30 mins by polyethylene glycol precipitation assay in presence of phosphatidylserine
[2] = Displacement of [20-3H]PDBu from GST-tagged mouse PKC-delta C1B domain N7R mutant expressed in Escherichia coli after 2 to 30 mins by polyethylene glycol precipitation assay in presence of phosphatidylserine
[3] = Displacement of [20-3H]PDBu from GST-tagged mouse PKC-delta C1B domain N7R/P11R mutant expressed in Escherichia coli after 2 to 30 mins by polyethylene glycol precipitation assay in presence of phosphatidylserine
[4] = Displacement of [20-3H]PDBu from GST-tagged mouse PKC-delta C1B domain S10R mutant expressed in Escherichia coli after 2 to 30 mins by polyethylene glycol precipitation assay in presence of phosphatidylserine
Mus musculus [5] = species: Mus musculus; experiment: Selectivity ratio of Ki for GST-tagged mouse PKC-delta C1B domain N7R/P11R mutant to Kd for GST-tagged full-length mouse PKC-delta C1B domain
Mus musculus [6] = species: Mus musculus; experiment: Selectivity ratio of Ki for GST-tagged mouse PKC-delta C1B domain N7R/L20R mutant to Kd for GST-tagged full-length mouse PKC-delta C1B domain
[7] = Displacement of [20-3H]PDBu from GST-tagged mouse PKC-delta C1B domain L20R mutant expressed in Escherichia coli after 2 to 30 mins by polyethylene glycol precipitation assay in presence of phosphatidylserine
Mus musculus [8] = species: Mus musculus; experiment: Selectivity ratio of Ki for GST-tagged mouse PKC-delta C1B domain S10R mutant to Kd for GST-tagged full-length mouse PKC-delta C1B domain
Mus musculus [9] = species: Mus musculus; experiment: Selectivity ratio of Ki for GST-tagged mouse PKC-delta C1B domain L20R mutant to Kd for GST-tagged full-length mouse PKC-delta C1B domain
Mus musculus [10] = species: Mus musculus; experiment: Selectivity ratio of Ki for GST-tagged mouse PKC-delta C1B domain N7R mutant to Kd for GST-tagged full-length mouse PKC-delta C1B domain
[11] = biological target: Protein kinase C delta type (Mus musculus, UniProt P28867); experiment: Displacement of [20-3H]PDBu from GST-tagged full-length mouse PKC-delta C1B domain expressed in Escherichia coli after 2 to 30 mins by polyethylene glycol precipitation assay in presence of phosphatidylserine
[12] = Displacement of [20-3H]PDBu from GST-tagged mouse PKC-delta C1B domain P11R mutant expressed in Escherichia coli after 2 to 30 mins by polyethylene glycol precipitation assay in presence of phosphatidylserine
Mus musculus [13] = species: Mus musculus; experiment: Selectivity ratio of Ki for GST-tagged mouse PKC-delta C1B domain P11R mutant to Kd for GST-tagged full-length mouse PKC-delta C1B domain
[14] = Displacement of [20-3H]PDBu from GST-tagged mouse PKC-delta C1B domain N7R/S10R/L20R mutant expressed in Escherichia coli after 2 to 30 mins by polyethylene glycol precipitation assay in presence of phosphatidylserine
Mus musculus [15] = species: Mus musculus; experiment: Selectivity ratio of Ki for GST-tagged mouse PKC-delta C1B domain N7R/S10R/L20R mutant to Kd for GST-tagged full-length mouse PKC-delta C1B domain
[16] = Displacement of [20-3H]PDBu from GST-tagged mouse PKC-delta C1B domain N7R/S10R/P11R mutant expressed in Escherichia coli after 2 to 30 mins by polyethylene glycol precipitation assay in presence of phosphatidylserine
Mus musculus [17] = species: Mus musculus; experiment: Selectivity ratio of Ki for GST-tagged mouse PKC-delta C1B domain N7R/S10R/P11R mutant to Kd for GST-tagged full-length mouse PKC-delta C1B domain
Mus musculus [18] = species: Mus musculus; experiment: Selectivity ratio of Kd for GST-tagged full-length mouse PKC-delta C1B domain to Ki for GST-tagged mouse PKC-delta C1B domain P11R mutant

Sequence of Protein kinase C delta type (P28867 whole entry, the tested form may be a part): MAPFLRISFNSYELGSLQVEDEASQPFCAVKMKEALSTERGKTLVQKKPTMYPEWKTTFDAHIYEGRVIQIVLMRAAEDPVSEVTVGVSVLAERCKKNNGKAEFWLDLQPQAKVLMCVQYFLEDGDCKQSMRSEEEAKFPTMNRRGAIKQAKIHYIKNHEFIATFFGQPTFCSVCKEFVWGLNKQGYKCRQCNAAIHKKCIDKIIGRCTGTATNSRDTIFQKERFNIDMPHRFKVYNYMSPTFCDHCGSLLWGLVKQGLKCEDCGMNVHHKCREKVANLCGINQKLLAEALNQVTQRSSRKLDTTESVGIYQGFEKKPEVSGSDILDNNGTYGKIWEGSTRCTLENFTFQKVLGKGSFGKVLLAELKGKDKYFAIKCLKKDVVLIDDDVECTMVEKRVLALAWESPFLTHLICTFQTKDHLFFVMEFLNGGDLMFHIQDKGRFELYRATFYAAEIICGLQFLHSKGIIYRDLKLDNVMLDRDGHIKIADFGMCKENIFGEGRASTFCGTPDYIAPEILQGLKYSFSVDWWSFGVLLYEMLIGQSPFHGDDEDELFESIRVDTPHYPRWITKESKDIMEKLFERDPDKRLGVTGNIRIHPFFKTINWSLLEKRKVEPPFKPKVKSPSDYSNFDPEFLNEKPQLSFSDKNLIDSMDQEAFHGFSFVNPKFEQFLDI

| Compound | Ki [1] | Ki [2] | Ki [3] | Ki [4] | Selectivity ratio (Mus musculus [5]) | Selectivity ratio (Mus musculus [6]) | Ki [7] | Selectivity ratio (Mus musculus [8]) | Selectivity ratio (Mus musculus [9]) | Selectivity ratio (Mus musculus [10]) | Kd [11] | Ki [12] | Selectivity ratio (Mus musculus [13]) | Ki [14] | Selectivity ratio (Mus musculus [15]) | Ki [16] | Selectivity ratio (Mus musculus [17]) | Selectivity ratio (Mus musculus [18]) |
| --- | --- | --- | --- | --- | --- | --- | --- | --- | --- | --- | --- | --- | --- | --- | --- | --- | --- | --- |
| CC(C)(C)C(=O)OCC1(CO)C/C(=C\c2cccc(C(=O)O)c2)C(=O)O1 (configuration not stated) | 105000 nM | 1740 nM | 16000 nM | 1760 nM | 13.2 | 87 | 5500 nM | 1.46 | 4.57 | 1.44 | 1210 nM | 3360 nM | 2.79 |  |  |  |  |  |
| CC(C)CC(C/C=C1\CC(CO)(COC(=O)C(C)(CO)CO)OC1=O)CC(C)C (configuration not stated) | 7640 nM | 806 nM | 23800 nM | 1120 nM | 30.7 | 9.83 | 810 nM | 1.44 | 1.04 | 1.04 | 777 nM | 2030 nM | 2.61 | 7830 nM | 10.1 | 47000 nM | 60.5 |  |
| CC(C)CC(CC(=O)OCC1(CO)C/C(=C\c2cccc(C(C(=O)OC(C)(C)C)C(=O)OC(C)(C)C)c2)C(=O)O1)CC(C)C (configuration not stated) |  | 0.6 nM |  | 0.6 nM |  |  | 8.8 nM | 1.2 | 17.6 | 1.2 | 0.5 nM | 1 nM | 2 |  |  |  |  |  |
| CC(C)C(CC(=O)OCC1(CO)C/C(=C\c2ccc(C(=O)O)cc2)C(=O)O1)C(C)C (configuration not stated) | 117000 nM | 787 nM | 3800 nM | 813 nM | 6.79 | 209 | 6900 nM | 1.45 | 12.4 | 1.41 | 560 nM | 710 nM | 1.27 |  |  |  |  |  |
| CCCC(=O)O[C@@H]1[C@@H](C)[C@@]2(O)[C@@H](C=C(CO)C[C@]3(O)C(=O)C(C)=C[C@@H]23)[C@@H]2C(C)(C)[C@]12OC(=O)CCC | 480 nM | 1.18 nM | 33.8 nM | 0.32 nM |  |  | 8 nM |  |  |  | 0.23 nM |  |  | 1360 nM |  | 19.6 nM |  |  |
| CC(C)CC(CC(=O)OCC1(CO)C/C(=C\c2cccc(C(=O)O)c2)C(=O)O1)CC(C)C (configuration not stated) |  | 281 nM |  | 468 nM |  |  | 1600 nM | 1.56 | 5.33 | 0.94 | 300 nM | 100 nM | 0.33 |  |  |  |  | 3 |
| CC(C)C(CC(=O)OCC1(CO)C/C(=C\c2cccc(C(=O)O)c2)C(=O)O1)C(C)C (configuration not stated) | 45900 nM | 640 nM | 5190 nM | 840 nM | 2.47 | 21.8 | 2820 nM | 0.4 | 1.34 | 0.3 | 2100 nM | 421 nM | 0.2 |  |  |  |  | 5 |
| CC(C)CC(CC(=O)OCC1(CO)C/C(=C\c2ccccc2C(C(=O)OC(C)(C)C)C(=O)OC(C)(C)C)C(=O)O1)CC(C)C (configuration not stated) |  | 0.9 nM |  | 1.5 nM |  |  | 17.3 nM | 1.5 | 17.3 | 0.9 | 1 nM | 1.7 nM | 1.7 |  |  |  |  |  |
| CC(C)C(CC(=O)OCC1(CO)C/C(=C\c2ccc(O)cc2)C(=O)O1)C(C)C (configuration not stated) |  | 1.99 nM |  | 1.18 nM |  |  | 9.4 nM | 0.4 | 3.2 | 0.67 | 2.95 nM | 1.48 nM | 0.5 |  |  |  |  |  |
| CC(C)(C)C(=O)OCC1(CO)C/C(=C\c2ccc(C(=O)O)cc2)C(=O)O1 (configuration not stated) | 83400 nM | 880 nM | 3700 nM | 667 nM | 3.49 | 78 | 6140 nM | 0.62 | 5.74 | 0.82 | 1070 nM | 998 nM | 0.93 |  |  |  |  |  |
| CC(C)C(CC(=O)OCC1(CO)C/C(=C\c2ccccc2O)C(=O)O1)C(C)C (configuration not stated) | 239 nM | 3.29 nM | 37 nM | 2.33 nM | 12.5 | 81 | 14 nM | 0.79 | 4.75 | 1.12 | 2.95 nM | 10.4 nM | 3.53 | 661 nM | 224 | 63 nM | 21.3 |  |
| CC(C)CC(CC(=O)OCC1(CO)C/C(=C\c2ccc(C(=O)O)cc2)C(=O)O1)CC(C)C (configuration not stated) |  | 120 nM |  | 94 nM |  |  | 739 nM | 0.98 | 7.7 | 1.25 | 96 nM | 120 nM | 1.25 |  |  |  |  |  |
| CC(C)C(CC(=O)OCC1(CO)C/C(=C\c2cccc(O)c2)C(=O)O1)C(C)C (configuration not stated) |  | 2.48 nM |  | 2.08 nM |  |  | 19.4 nM | 0.85 | 7.87 | 1.01 | 2.46 nM | 2.32 nM | 0.94 |  |  |  |  |  |
| CC(C)CC(CC(=O)OCC1(CO)C/C(=C\c2ccc(C(C(=O)OC(C)(C)C)C(=O)OC(C)(C)C)cc2)C(=O)O1)CC(C)C (configuration not stated) |  | 0.7 nM |  | 0.6 nM |  |  | 10.5 nM | 1 | 17.5 | 1.17 | 0.6 nM | 1.2 nM | 2 |  |  |  |  |  |
| CC(C)C(CC(=O)OCC1(CO)C/C(=C/c2ccc(C(=O)O)cc2)C(=O)O1)C(C)C (configuration not stated) | 51900 nM | 473 nM | 2810 nM | 496 nM | 3.25 | 60 | 2810 nM | 0.57 | 3.25 | 0.55 | 865 nM | 940 nM | 1.09 |  |  |  |  |  |
